According to BigSolDB 2.1:

O=C1OC(=O)[C@H]2[C@@H]1[C@@H]1C=C[C@H]2O1
solubility (mole fraction)
Conditions | 278.15 K | 283.15 K | 288.15 K | 293.15 K | 298.15 K | 303.15 K | 308.15 K | 313.15 K | 318.15 K | 323.15 K
in 1,4-dioxane | – | – | 0.0238 | 0.0288 | 0.0342 | 0.0414 | 0.052 | 0.0647 | 0.0857 | 0.134
in DMF | 0.106 | 0.117 | 0.126 | 0.138 | 0.15 | 0.164 | 0.181 | 0.192 | 0.218 | 0.238
in NMP | 0.133 | 0.144 | 0.155 | 0.17 | 0.184 | 0.199 | 0.211 | 0.235 | 0.256 | 0.277
in acetone | 0.038 | 0.0434 | 0.0483 | 0.0556 | 0.0629 | 0.0717 | 0.0818 | 0.0932 | 0.107 | 0.125
in acetonitrile | 0.0308 | 0.0353 | 0.0393 | 0.0453 | 0.0508 | 0.0576 | 0.0667 | 0.078 | 0.0887 | 0.109
in ethyl acetate | 0.0157 | 0.0179 | 0.0207 | 0.0234 | 0.0275 | 0.031 | 0.0363 | 0.0414 | 0.0482 | 0.0569
in isobutyl acetate | 0.00929 | 0.011 | 0.0122 | 0.0143 | 0.0165 | 0.0189 | 0.022 | 0.0248 | 0.0283 | 0.0324
in isopentyl acetate | 0.00727 | 0.00841 | 0.00971 | 0.011 | 0.0129 | 0.0147 | 0.0168 | 0.0196 | 0.0214 | 0.0251
in isopropyl acetate | 0.0101 | 0.0126 | 0.014 | 0.0164 | 0.0191 | 0.022 | 0.0255 | 0.0295 | 0.0335 | 0.0395
in methyl acetate | 0.0236 | 0.0281 | 0.031 | 0.0368 | 0.042 | 0.0496 | 0.0582 | 0.0687 | 0.0806 | 0.0965
in n-butyl acetate | 0.00989 | 0.0115 | 0.0129 | 0.0149 | 0.0172 | 0.0196 | 0.0226 | 0.0258 | 0.0285 | 0.0339
in n-pentyl acetate | 0.00784 | 0.00916 | 0.0105 | 0.012 | 0.0137 | 0.0158 | 0.018 | 0.0205 | 0.0231 | 0.0264
in n-propyl acetate | 0.012 | 0.0135 | 0.0159 | 0.0179 | 0.021 | 0.0244 | 0.0277 | 0.033 | 0.0388 | 0.0435
